Publication PMC4452934 (CPT: Pharmacometrics & Systems Pharmacology, 2015)

Test: Excretion in bile-duct cannulated rats
Format: in vivo, rat

direct excretion in bile and urine: < 2 % of total clearance
Structure (SMILES): CCn1c(C(=O)N(C2CC2)C2CC2)cc2c3c(ncn3C)c(Nc3cc(C)n(C)n3)nc21 [BMS-911543]
